Source: ChEMBL document CHEMBL1201862, “PubChem BioAssay data set” (2004)
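How tested: cells in 96-well plates exposed to compound for 48 hours at five concentrations. GI50 is the concentration that inhibits growth by half.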 Calls of active or inactive are those of the source. Cut-off read from the data, not from the text of the source: active = GI50 up to about 1.1 µM and inactive = higher.

Assays:
Assay in all cases: NCI-60 cell line screen, 48 h
786-0 = system: 786-0
ACHN = system: ACHN
BT-549 = system: BT-549
DU-145 = system: DU-145
HCC 2998 = system: HCC 2998
HCT-15 = system: HCT-15
HL-60 = system: HL-60
HOP-62 = system: HOP-62
Hs-578T = system: Hs-578T
MCF7 = system: MCF7
MDA-MB-435 = system: MDA-MB-435
MOLT-4 = system: MOLT-4
NCI-H226 = system: NCI-H226
OVCAR-3 = system: OVCAR-3
PC-3 = system: PC-3
RPMI-8226 = system: RPMI-8226
RXF 393 = system: RXF 393
SK-MEL-2 = system: SK-MEL-2
SK-MEL-5 = system: SK-MEL-5
SNB-19 = system: SNB-19

SMILES	GI50 (786-0)	GI50 (ACHN)	GI50 (BT-549)	GI50 (DU-145)	GI50 (HCC 2998)	GI50 (HCT-15) [µM]	GI50 (HL-60)	GI50 (HOP-62)	GI50 (Hs-578T)	GI50 (MCF7)	GI50 (MDA-MB-435)	GI50 (MOLT-4)	GI50 (NCI-H226)	GI50 (OVCAR-3)	GI50 (PC-3)	GI50 (RPMI-8226)	GI50 (RXF 393)	GI50 (SK-MEL-2)	GI50 (SK-MEL-5)	GI50 (SNB-19)
CC1=CC(C)C(C)N(CCNS(=O)(=O)c2ccc(C)cc2)c2ccccc21 (stereo not given)	14.2 µM (inactive)	15.8 µM (inactive)	17.1 µM (inactive)	11.1 µM (inactive)	16.4 µM (inactive)	18.2	14 µM (inactive)	16.3 µM (inactive)	12.9 µM (inactive)	14.2 µM (inactive)	13.5 µM (inactive)	12.2 µM (inactive)	12.3 µM (inactive)	12.5 µM (inactive)	12.5 µM (inactive)	12.2 µM (inactive)	12.1 µM (inactive)	12 µM (inactive)	> 10 µM (inactive)	> 31.6 µM (inactive)
Oc1cccc2ccc(SSc3ccc4cccc(O)c4n3)nc12	18.2 µM (inactive)	15.1 µM (inactive)	21.1 µM (inactive)	73.1 µM (inactive)	5.56 µM (inactive)	22.3	22.8 µM (inactive)	17.7 µM (inactive)	31.4 µM (inactive)	5.89 µM (inactive)	19 µM (inactive)	9.59 µM (inactive)	> 100 µM (inactive)	16.1 µM (inactive)	16.3 µM (inactive)	26.1 µM (inactive)	16 µM (inactive)	19.1 µM (inactive)	33.5 µM (inactive)	> 100 µM (inactive)
c1ccc(-c2cc3[nH]c4ccccc4[nH]c-3cc(-c3ccccc3)nn2)cc1	29.2 µM (inactive)	24.9 µM (inactive)	> 100 µM (inactive)	52.7 µM (inactive)	40 µM (inactive)	87.7	20.6 µM (inactive)	26.3 µM (inactive)	66.4 µM (inactive)	51.3 µM (inactive)	64.3 µM (inactive)	> 100 µM (inactive)	45.6 µM (inactive)	22.7 µM (inactive)	55.1 µM (inactive)	88.1 µM (inactive)	76.9 µM (inactive)	> 100 µM (inactive)	74.6 µM (inactive)	41.6 µM (inactive)
Cc1cc(NS(=O)(=O)c2ccc(Nc3c4ccccc4nc4ccc(C(=O)Nc5ccc(S(=O)(=O)N=C(N)N)cc5)cc34)cc2)no1	> 100 µM (inactive)	> 100 µM (inactive)	> 100 µM (inactive)	> 100 µM (inactive)	> 100 µM (inactive)	> 100	> 100 µM (inactive)	> 100 µM (inactive)	> 100 µM (inactive)	> 100 µM (inactive)	> 100 µM (inactive)	> 100 µM (inactive)	> 100 µM (inactive)	> 100 µM (inactive)	> 100 µM (inactive)	> 100 µM (inactive)	> 100 µM (inactive)	> 100 µM (inactive)	> 100 µM (inactive)	> 100 µM (inactive)
CCOP(=O)(OCC)/C(C#N)=C/c1cnc[nH]1	> 100 µM (inactive)	> 100 µM (inactive)	> 100 µM (inactive)	> 100 µM (inactive)	> 100 µM (inactive)	> 100	> 100 µM (inactive)	> 100 µM (inactive)	> 100 µM (inactive)	> 100 µM (inactive)	> 100 µM (inactive)	> 100 µM (inactive)	> 100 µM (inactive)	> 100 µM (inactive)	> 100 µM (inactive)	> 100 µM (inactive)	> 100 µM (inactive)	> 100 µM (inactive)	> 100 µM (inactive)	> 100 µM (inactive)
CC(=O)OCC1OC(NC(=S)CCSc2nc3ccccc3c(=O)n2-c2ccccc2)C(OC(C)=O)C(OC(C)=O)C1OC(C)=O (stereo not given)	63.2 µM (inactive)	83.4 µM (inactive)	31.4 µM (inactive)	> 100 µM (inactive)	39.3 µM (inactive)	53.7	29.2 µM (inactive)	28.3 µM (inactive)	24.8 µM (inactive)	> 100 µM (inactive)	52 µM (inactive)	30 µM (inactive)	50.5 µM (inactive)	40.4 µM (inactive)	40.9 µM (inactive)	> 100 µM (inactive)	18 µM (inactive)	22.1 µM (inactive)	45 µM (inactive)	34 µM (inactive)
CC1=CC[C@@]2(C)[C@@H]([C@@H]1C)[C@H]1CC[C@@H]3[C@@]4(C)CC[C@H](O)C(C)(C)[C@@H]4CC[C@@]3(C)[C@]1(C)C[C@@H]2O	12.4 µM (inactive)	9.62 µM (inactive)	29.1 µM (inactive)	8 µM (inactive)	17.7 µM (inactive)	26.1	50.1 µM (inactive)	13.5 µM (inactive)	37 µM (inactive)	35.2 µM (inactive)	20.2 µM (inactive)	13.9 µM (inactive)	27.2 µM (inactive)	18.9 µM (inactive)	18.6 µM (inactive)	9.23 µM (inactive)	10.4 µM (inactive)	24.8 µM (inactive)	13.7 µM (inactive)	37.8 µM (inactive)
